# How the values were obtained:
# [1] = system: C. glutamicum ATCC 13032/pPB-pHin2^Cg; assay: pHluorin assay for membrane damage; assay type: cell-based, Corynebacterium glutamicum; conditions: LMB pH 6.2, 30 min room temperature
# Description: For detection of membrane damage, a pHluorin assay was conducted as described earlier ([34]). In particular, a 5-mL BHI overnight culture containing kanamycin (50 μg/mL) of the sensor strain C. glutamicum ATCC 13032/pPB-pHin2^Cg was harvested by centrifugation and resuspended to an OD600 of 3 in Listeria minimal buffer [LMB: 100 mM MOPS, 4.82 mM KH2PO4, 11.52 mM Na2HPO4, 1.7 mM MgSO4, 0.6 g/L (NH4)2SO4, 55 mM glucose (pH 6.2)]. Serial 2-fold dilutions of samples were prepared in black 96-well microtiter plates (Sarsted, Nümbrecht, Germany) with a final volume of 100 μL in each well. Subsequently, 100 μL of the sensor strain suspension was added and the plate was incubated at room temperature in the dark for 30 min. Then, pHluorin2 fluorescence was measured at 520 nm with excitation at the distinct maxima at 400 and 480 nm using an infinite M200 plate reader (Tecan, Männedorf, Switzerland).
# C. glutamicum ATCC 13032 [2] = assay: time-kill kinetics; assay type: cell-based, Corynebacterium glutamicum
# Description: Fresh overnight cultures of C. glutamicum ATCC 13032 were used to inoculate 5 mL 2× TY in glass tubes with a starting OD600 of 0.5 (i.e., ~10^7 CFU/mL). Samples of interest were added at the indicated concentrations prior to inoculation of the medium. Cultures were then incubated on a rotary shaker at 130 rpm for 24 h at 30°C. Samples were collected at the indicated time points, diluted (10^−1 to 10^−8), and plated on 2× TY agar. CFU per milliliter were determined after 24 to 48 h of incubation of the plates at 30°C by counting the colonies for the respective dilution.
# [3] = system: Cutibacterium acnes DSM 16379; assay: spot-on-lawn assay; assay type: cell-based; parameters: key to Activity, RPC fraction: +: zone of inhibition; (+): diffuse zone of inhibition; −: no zone of inhibition
# Description: (§1) Antimicrobial activity was determined using a spot-on-lawn assay. Overnight cultures of the respective strains were inoculated with an OD600 of 0.01 into hand-warmed agar medium (16 g/L agar) and poured into sterile petri dishes. After solidification, surfaces of agar plates were air dried at room temperature under a sterile hood. Supernatants and purification fractions were serially diluted and spotted onto agar plates. Plates were incubated under the preferred conditions of the embedded bacteria until growth was visible. Volumetric bacteriocin activity (bacteriocin units [BU] per milliliter) was determined by dividing the last dilution factor resulting in a visible zone of inhibition by the volume spotted.
# Listeria innocua LMG2785 = assay: spot-on-lawn assay; assay type: cell-based; parameters: key to Activity, RPC fraction: +: zone of inhibition; (+): diffuse zone of inhibition; −: no zone of inhibition
# Description: as §1
# [4] = system: Corynebacterium glutamicum ATCC 13032; assay: spot-on-lawn assay; assay type: cell-based; parameters: key to Activity, RPC fraction: +: zone of inhibition; (+): diffuse zone of inhibition; −: no zone of inhibition
# Description: as §1
# [5] = system: Corynebacterium ammoniagenes DSM 20306; assay: spot-on-lawn assay; assay type: cell-based; parameters: key: +: zone of inhibition; (+): diffuse zone of inhibition; −: no zone of inhibition; conditions: ten-microliter RPC fraction
# Description: as §1
# [6] = system: Lactobacillus plantarum DSM 1055; assay: spot-on-lawn assay; assay type: cell-based; parameters: key: +: zone of inhibition; (+): diffuse zone of inhibition; −: no zone of inhibition; conditions: ten-microliter RPC fraction
# Description: as §1
# [7] = system: Pediococcus acidilactici 347; assay: spot-on-lawn assay; assay type: cell-based; parameters: key: +: zone of inhibition; (+): diffuse zone of inhibition; −: no zone of inhibition; conditions: ten-microliter RPC fraction
# Description: as §1
# [8] = system: Corynebacterium efficiens DSM 44549; assay: spot-on-lawn assay; assay type: cell-based; parameters: key: +: zone of inhibition; (+): diffuse zone of inhibition; −: no zone of inhibition; conditions: ten-microliter RPC fraction
# Description: as §1
# [9] = system: Listeria monocytogenes EGD-e; assay: spot-on-lawn assay; assay type: cell-based; parameters: key: +: zone of inhibition; (+): diffuse zone of inhibition; −: no zone of inhibition; conditions: ten-microliter RPC fraction
# Description: as §1
# [10] = system: Corynebacterium casei DSM 44701; assay: spot-on-lawn assay; assay type: cell-based; parameters: key: +: zone of inhibition; (+): diffuse zone of inhibition; −: no zone of inhibition; conditions: ten-microliter RPC fraction
# Description: as §1
# [11] = system: Corynebacterium lipophiloflavum DSM 44291; assay: spot-on-lawn assay; assay type: cell-based; parameters: key: +: zone of inhibition; (+): diffuse zone of inhibition; −: no zone of inhibition; conditions: ten-microliter RPC fraction
# Description: as §1
# [12] = system: Staphylococcus epidermidis DSM 3269; assay: spot-on-lawn assay; assay type: cell-based; parameters: key: +: zone of inhibition; (+): diffuse zone of inhibition; −: no zone of inhibition; conditions: ten-microliter RPC fraction
# Description: as §1
# [13] = system: Micrococcus luteus DSM 20030; assay: spot-on-lawn assay; assay type: cell-based; parameters: key: +: zone of inhibition; (+): diffuse zone of inhibition; −: no zone of inhibition; conditions: ten-microliter RPC fraction
# Description: as §1
# [14] = system: Lactococcus lactis IL1403; assay: spot-on-lawn assay; assay type: cell-based; parameters: key: +: zone of inhibition; (+): diffuse zone of inhibition; −: no zone of inhibition; conditions: ten-microliter RPC fraction
# Description: as §1
# [15] = system: Escherichia coli K-12 MG1655; assay: spot-on-lawn assay; assay type: cell-based; parameters: key: +: zone of inhibition; (+): diffuse zone of inhibition; −: no zone of inhibition; conditions: ten-microliter RPC fraction
# Description: as §1
# [16] = system: Corynebacterium xerosis DSM 20743; assay: spot-on-lawn assay; assay type: cell-based; parameters: key: +: zone of inhibition; (+): diffuse zone of inhibition; −: no zone of inhibition; conditions: ten-microliter RPC fraction
# Description: as §1
# [17] = system: Corynebacterium amycolatum DSM 6922; assay: spot-on-lawn assay; assay type: cell-based; parameters: key: +: zone of inhibition; (+): diffuse zone of inhibition; −: no zone of inhibition; conditions: ten-microliter RPC fraction
# Description: as §1
# [18] = system: Bacillus subtilis DSM 402; assay: spot-on-lawn assay; assay type: cell-based; parameters: key: +: zone of inhibition; (+): diffuse zone of inhibition; −: no zone of inhibition; conditions: ten-microliter RPC fraction
# Description: as §1
# [19] = system: Corynebacterium striatum DSM 20668; assay: spot-on-lawn assay; assay type: cell-based; parameters: key: +: zone of inhibition; (+): diffuse zone of inhibition; −: no zone of inhibition; conditions: ten-microliter RPC fraction
# Description: as §1
# [20] = system: Staphylococcus aureus ATCC 29213; assay: spot-on-lawn assay; assay type: cell-based; parameters: key: +: zone of inhibition; (+): diffuse zone of inhibition; −: no zone of inhibition; conditions: ten-microliter RPC fraction
# Description: as §1
# [21] = system: Pseudomonas fluorescens DSM 50090; assay: spot-on-lawn assay; assay type: cell-based; parameters: key: +: zone of inhibition; (+): diffuse zone of inhibition; −: no zone of inhibition; conditions: ten-microliter RPC fraction
# Description: as §1
# [22] = resistance to heat treatment; assay type: physicochemical; conditions: read-out spot-on-lawn, 10-μL sample
# Description: (§2) To assess the physicochemical properties of the purified compound, it was tested for resistance to protease and heat treatment (Fig. 3c and d). While a reduction of activity of the RPC fraction to 8,000 BU/mL (i.e., about 4-fold) was observed after incubation with trypsin or proteinase K, heat treatment at 80°C and 100°C for 10 min had no effect.
# proteinase K = proteinase K (Parengyodontium album, UniProt P06873); assay: resistance to protease treatment; assay type: in vitro ADME
# Description: as §2
# trypsin = assay type: in vitro ADME
# Description: as §2
# C. glutamicum ATCC 13032 [23] = assay: fluorescence microscopy of propidium iodide-stained bacteria; assay type: cell-based, Corynebacterium glutamicum; conditions: 4,000-BU/mL RPC fraction, 10 to 30 min incubation
# Description: A fresh culture of C. glutamicum ATCC 13032 was washed once in phosphate-buffered saline (PBS), and bacteria were resuspended in saline (0.9% [wt/vol] NaCl) at an OD600 of 1. An 87.5-μL concentration of the cell suspension was mixed with nisin, cetyltrimethylammonium bromide (CTAB), H2O, or the RPC fraction containing corynaridin to the indicated concentrations and incubated for 10 to 30 min in the dark. Then, the bacteria were stained using 12.5 μL propidium iodide (25 μg/mL) (Invitrogen, Darmstadt, Germany) and again incubated for 15 min in the dark. Samples were imaged using a Axio Observer Z1 (Zeiss, Oberkochen, Germany) in bright-field and fluorescence mode with a filter set for propidium iodide (excitation at 575 to 625 nm, emission at 660 to 710 nm). Images were acquired with a 63× lens objective and analyzed using the Zen software (version 2.3 SP1; Zeiss).
# Micrococcus luteus = conditions: cited from earlier work
# From the text: (§3) While extensive studies have been carried out on the structure and chemistry behind their modifications, comparably little is known about the biological functions of linaridins. […] So far, for none of the hitherto described linaridins receptors or mode of action have been prop ...
# [24] = system: Streptococcus pyogenes strain; conditions: cited from earlier work
# From the text: as §3
# Chain of proteinase K (P06873 106-384): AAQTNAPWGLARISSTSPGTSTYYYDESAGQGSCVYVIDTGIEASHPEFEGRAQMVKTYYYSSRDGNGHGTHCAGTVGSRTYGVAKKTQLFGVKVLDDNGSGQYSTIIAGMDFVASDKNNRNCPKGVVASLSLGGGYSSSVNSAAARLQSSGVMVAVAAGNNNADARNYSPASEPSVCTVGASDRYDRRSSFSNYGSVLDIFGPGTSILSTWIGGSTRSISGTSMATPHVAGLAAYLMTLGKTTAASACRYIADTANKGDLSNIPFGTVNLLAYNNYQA
compound,measurement,setting,value
"CCCCCCCCCCCCCCCC[N+](C)(C)C [CTAB, cetyltrimethylammonium bromide]",change of pHluorin2 fluorescence ratio (excitation 400/480 nm),[1]; positive controls,reduced fluorescence ratios
"O=C(N[C@H](CO)[C@H](O)c1ccc([N+](=O)[O-])cc1)C(Cl)Cl [chloramphenicol, reference compound]",CFU per milliliter throughout the experiment,"C. glutamicum ATCC 13032 [2]; 6.5 μg/mL, 2x TY, 30°C, 24 h",stable levels of CFU per milliliter
corynaridin,"Activity, RPC fraction",[3]; ten-microliter RPC fraction,(+)
same,concentration of RPC fraction at which low levels of inhibition were achieved,[3]; total protein of RPC fraction,"> 1,000 μg/mL"
same,"Activity, RPC fraction",Listeria innocua LMG2785; ten-microliter RPC fraction,(+)
same,concentration of RPC fraction at which low levels of inhibition were achieved,Listeria innocua LMG2785; total protein of RPC fraction,"> 1,000 μg/mL"
same,volumetric bacteriocin activity of RPC preparation,"[4]; purified from CLI culture supernatant (ammonium sulfate, CIEX, RPC), resuspended in HPLC-grade H2O, BU/mL = last inhibiting dilution factor / volume spotted","32,000 BU/mL"
same,volumetric bacteriocin activity of RPC sample for LC-MS,"[4]; purified from CLIV minimal medium supernatant (CIEX, RPC), corresponding to 0.5 μg/mL protein","40,000 BU/mL"
same,"Activity, RPC fraction","[4]; spot-on-lawn, ten-microliter RPC fraction",+
same,"Activity, RPC fraction",[5],+
same,"Activity, RPC fraction",[6],−
same,"Activity, RPC fraction",[7],−
same,"Activity, RPC fraction",[8],+
same,"Activity, RPC fraction",[9],−
same,"Activity, RPC fraction",[10],+
same,"Activity, RPC fraction",[11],+
same,"Activity, RPC fraction",[12],−
same,"Activity, RPC fraction",[13],+
same,"Activity, RPC fraction",[14],+
same,"Activity, RPC fraction",[15],−
same,"Activity, RPC fraction",[16],+
same,"Activity, RPC fraction",[17],+
same,"Activity, RPC fraction",[18],−
same,"Activity, RPC fraction",[19],+
same,"Activity, RPC fraction",[20],−
same,"Activity, RPC fraction",[21],−
same,effect of heat treatment on activity,[22]; 80°C for 10 min,no effect
same,effect of heat treatment on activity,[22]; 100°C for 10 min,no effect
same,CFU/mL after 24 h,C. glutamicum ATCC 13032 [2]; RPC fraction at 400 BU/mL (lower concentration),slightly increased CFU/mL after 24 h
same,decrease of CFU per milliliter after 2 h,"C. glutamicum ATCC 13032 [2]; RPC fraction at 400 BU/mL, 2x TY, 30°C, start ~10^7 CFU/mL",4 orders of magnitude
same,CFU/mL after 24 h,"C. glutamicum ATCC 13032 [2]; RPC fraction at 1,060 BU/mL (high concentration)",remained at low levels of CFU/mL
same,decrease of CFU per milliliter after 2 h,"C. glutamicum ATCC 13032 [2]; RPC fraction at 1,060 BU/mL, 2x TY, 30°C, start ~10^7 CFU/mL",4 orders of magnitude
same,change of pHluorin2 fluorescence ratio (excitation 400/480 nm),"[1]; concentrations up to 10,000 BU/mL, at least three biological replicates",did not result in a change of fluorescence ratios
same,reduction of activity after incubation with proteinase K,"proteinase K; 32,000 to 8,000 BU/mL",about 4 fold
same,activity of the RPC fraction after incubation with proteinase K,"proteinase K; starting activity 32,000 BU/mL, read-out spot-on-lawn, 10-μL sample, RPC fraction 606 μg/mL total protein","8,000 BU/mL"
same,reduction of activity after incubation with trypsin,trypsin,about 4 fold
same,membrane integrity by propidium iodide staining,C. glutamicum ATCC 13032 [23],no evidence for compromised integrity
cypemycin,antimicrobial activity,Micrococcus luteus,limited to Micrococcus luteus
nisin [reference compound],reduced number of CFU/mL after 2 h,"C. glutamicum ATCC 13032 [2]; 1.25 μg/mL, 2x TY, 30°C, start ~10^7 CFU/mL",> 4 log
same,change of pHluorin2 fluorescence ratio (excitation 400/480 nm),[1]; positive controls,reduced fluorescence ratios
salinipeptins,growth inhibition,[24],inhibit growth

# Reference: paper PMC9927463, “Identification and Characterization of Corynaridin, a Novel Linaridin from Corynebacterium lactis” (Microbiology Spectrum, 2022)
